Results: US7109338B2, “1,2-disubstituted 1,4-dihydro-4-oxoquinoline compounds” (priority 1999, dated 2006)
≈ marks a conversion by molar mass, not a printed value. Read-outs that look alike come from different tables or passages of the source.

Legend:
[1] = test system: human rhinovirus type 1B (HRV 1B, B632); assay: Anti-rhinovirus activity (MTT), HRV1B; assay type: cell-based; parameters: Anti-Rhinovirus activity, HRV1B: unit not given here
HRV5 = assay: Anti-rhinovirus spectrum (MTT), HRV5; assay type: cell-based, human rhinovirus; conditions: Table VII, rhinovirus serotype HRV5
[2] = test system: coxsackievirus type B4 (CB4,JVB); assay: In vitro anti-picornavirus activity (MTT), CB4; assay type: cell-based; conditions: HeLa cells, MTT method, 37° C.
HRV10 (204-CV14) = assay: Anti-rhinovirus spectrum (MTT), HRV10; assay type: cell-based, human rhinovirus; conditions: Table VII, rhinovirus serotype HRV10
[3] = test system: echovirus type 11 (Echo 11, Gregory); assay: In vitro anti-picornavirus activity (MTT), Echo 11; assay type: cell-based; conditions: HeLa-S3 cells, MTT method, 37° C.
HRV8(MRH) = assay: Anti-rhinovirus spectrum (MTT), HRV8; assay type: cell-based, human rhinovirus; conditions: Table VII, rhinovirus serotype HRV8
[4] = test system: coxsackievirus type A7 (CA7); assay: In vitro anti-picornavirus activity (MTT), CA7; assay type: cell-based; conditions: HeLa-S3 cells, MTT method, 37° C.
HRV14 (1059) = assay: Anti-rhinovirus activity (MTT), HRV14; assay type: cell-based, human rhinovirus; conditions: Table VII, rhinovirus serotype HRV14
[5] = test system: clinical isolate (89229T); assay: microbe, parasite or virus in culture; assay type: cell-based, human rhinovirus; conditions: Table VII, clinical isolate (89229T)
HRV1A (E28) = assay: Anti-rhinovirus activity (MTT), HRV1A; assay type: cell-based, human rhinovirus
HRV29 (5582) = assay: Anti-rhinovirus spectrum (MTT), HRV29; assay type: cell-based, human rhinovirus; conditions: Table VII, rhinovirus serotype HRV29
HRV61 (6669-CV39) = assay: Anti-rhinovirus spectrum (MTT), HRV61; assay type: cell-based, human rhinovirus; conditions: Table VII, rhinovirus serotype HRV61
HRV41 (56110) = assay: Anti-rhinovirus spectrum (MTT), HRV41; assay type: cell-based, human rhinovirus; conditions: Table VII, rhinovirus serotype HRV41
[6] = Cytotoxicity (MTT, without virus), HeLa(Ohio); conditions: human, HeLa (Ohio strain) cells (uninfected)
[7] = test system: Poliovirus type 1 (Polio 1, Sabin); assay: microbe, parasite or virus in culture; assay type: cell-based
HRV39 (209) = assay: Anti-rhinovirus spectrum (MTT), HRV39; assay type: cell-based, human rhinovirus; conditions: Table VII, rhinovirus serotype HRV39
[8] = Cytotoxicity (MTT, without virus), HeLa; conditions: human, HeLa cells (uninfected)
HRV50(A2#58) = assay: Anti-rhinovirus spectrum (MTT), HRV50; assay type: cell-based, human rhinovirus
[9] = Cytotoxicity (MTT, without virus), HeLa-S3; conditions: human, HeLa-S3 cells (uninfected)
HRV33 (1200) = assay: Anti-rhinovirus spectrum (MTT), HRV33; assay type: cell-based, human rhinovirus; conditions: Table VII, rhinovirus serotype HRV33
HRV32 (363) = assay: Anti-rhinovirus spectrum (MTT), HRV32; assay type: cell-based, human rhinovirus; conditions: Table VII, rhinovirus serotype HRV32
HRV13 (353) = assay: Anti-rhinovirus spectrum (MTT), HRV13; assay type: cell-based, human rhinovirus; conditions: Table VII, rhinovirus serotype HRV13
HRV16 (11757) = assay: Anti-rhinovirus spectrum (MTT), HRV16; assay type: cell-based, human rhinovirus; conditions: Table VII, rhinovirus serotype HRV16
HRV36 (342H) = assay: Anti-rhinovirus spectrum (MTT), HRV36; assay type: cell-based, human rhinovirus; conditions: Table VII, rhinovirus serotype HRV36
HRV21 (47) = assay: Anti-rhinovirus spectrum (MTT), HRV21; assay type: cell-based, human rhinovirus; conditions: Table VII, rhinovirus serotype HRV21
HRV3(FEB) = assay: Anti-rhinovirus spectrum (MTT), HRV3; assay type: cell-based, human rhinovirus; conditions: Table VII, rhinovirus serotype HRV3
HRV31 (41F) = assay: Anti-rhinovirus spectrum (MTT), HRV31; assay type: cell-based, human rhinovirus; conditions: Table VII, rhinovirus serotype HRV31
HRV 2 (HGP) = assay: Anti-rhinovirus activity (MTT), HRV2; assay type: cell-based, human rhinovirus; parameters: Anti-Rhinovirus activity, HRV2: unit not given here
HRV 89 (41617-Gallo) = assay: Anti-rhinovirus activity (MTT), HRV89; assay type: cell-based, human rhinovirus; parameters: Anti-Rhinovirus activity, HRV89: unit not given here
[10] = test system: Human rotavirus (HROV, Odelia); assay: In vitro anti-rotavirus activity (plaque reduction), HRoV; assay type: cell-based; conditions: MA104 cells, four days after infection
Protocol: (§1) Human rotavirus (HROV, Odelia) and simian rotavirus (SRoV, SA11) were used in this experiment. Confluent monolayers of MA104 cells in 6-well multiplate were washed with Eagle MEM containing 0.5 μg/ml of trypsin and were infected with tripsinized-rotavirus (treated with 10 μg/ml of tripsin at 37° C. for 1.5 hr) at 50 PFU per well. After 1 hr of adsorption, the virus inoculum was removed, and the monolayers were washed with Eagle MEM containing 0.5 μg/ml of trypsin and overlaid with Eagle MEM containing 1 μg/ml of trypsin, 0.6% purified agar and the test compounds at various concentrations. The cultures were incubated at 37° C. for 3 days and same overlay medium was added. Four days after infection, the cell sheets were washed with PBS and stained with 1.3% crystal violet in 95% ethanol. The antiviral efficacy of the compounds was expressed as the IC50, that is the concentration of the compounds required to reduce the number of plaques to 50% in the control (virus-infected, but […]).

HeLa (Ohio strain)cells = assay: Cytotoxicity (MTT, without virus), HeLa(Ohio); conditions: HeLa(Ohio), no virus, incubated for 4 days
HeLa cells = assay: Cytotoxicity (MTT, without virus), HeLa; conditions: HeLa, no virus, incubated for 4 days
HeLa-S3 cells = assay: Cytotoxicity (MTT, without virus), HeLa-S3; conditions: HeLa-S3, no virus, incubated for 4 days
[11] = test system: simian rotavirus (SRoV, SA11); assay: In vitro anti-rotavirus activity (plaque reduction), SRoV; assay type: cell-based; conditions: MA104 cells, four days after infection
Protocol: as §1

[12] = HeLa (Ohio strain) cells, MTT method, 33° C.

## Cc1c(-c2ccccc2)n(-c2ccccc2)c2ccc(C(C)C)cc2c1=O [Compound A320, 1,2-Diphenyl-3-methyl-6-isopropyl-1,4-dihydro-4-oxoquinoline]
[1]; Human rhinovirus sp., HRV1B, HeLa (Ohio strain) cells, MTT method, 33° C., read-out: IC50 HRV1B
  IC50: 0.12 µg/mL (≈ 0.339 µM)
[1]; Table VII, rhinovirus serotype HRV1B, read-out: Anti-rhinovirus activity HRV1B
  IC50: 0.12 µg/mL (≈ 0.339 µM)
HRV5; Enterovirus
  IC50: > 5 µg/mL
[2]; Coxsackievirus
  IC50: > 5 µg/mL
HRV10 (204-CV14); Enterovirus
  IC50: 0.021 µg/mL (≈ 0.0594 µM)
[3]; Enterovirus B
  IC50: 0.15 µg/mL (≈ 0.424 µM)
HRV8(MRH); Enterovirus
  IC50: > 5 µg/mL
[4]; Coxsackievirus
  IC50: > 5 µg/mL
HRV14 (1059); Enterovirus, read-out: Anti-rhinovirus activity HRV14
  IC50: > 5 µg/mL
[5]; Human rhinovirus sp., read-out: Anti-rhinovirus activity Clinically isolated strain
  IC50: 0.017 µg/mL (≈ 0.0481 µM)
HRV1A (E28); Enterovirus, HRV1A, read-out: Anti-rhinovirus activity HRV1A
  IC50: > 5 µg/mL
HRV29 (5582); Enterovirus
  IC50: 0.079 µg/mL (≈ 0.224 µM)
HRV61 (6669-CV39); Enterovirus
  IC50: 0.21 µg/mL (≈ 0.594 µM)
HRV41 (56110); Enterovirus
  IC50: 0.066 µg/mL (≈ 0.187 µM)
[6]
  CC50 at 4 days: > 5 µg/mL
[7]; Enterovirus C, HeLa S3, read-out: IC50 Polio 1
  IC50: > 5 µg/mL
HRV39 (209); Enterovirus
  IC50: < 0.017 µg/mL
[8]
  CC50 at 4 days: > 5 µg/mL
HRV50(A2#58); Enterovirus, HRV50, read-out: Anti-rhinovirus activity HRV50
  IC50: 0.02 µg/mL (≈ 0.0566 µM)
[9]
  CC50 at 4 days: > 5 µg/mL
HRV33 (1200); Enterovirus
  IC50: 0.23 µg/mL (≈ 0.651 µM)
HRV32 (363); Enterovirus
  IC50: 0.051 µg/mL (≈ 0.144 µM)
HRV13 (353); Enterovirus
  IC50: 0.23 µg/mL (≈ 0.651 µM)
HRV16 (11757); Enterovirus
  IC50: 0.023 µg/mL (≈ 0.0651 µM)
HRV36 (342H); Enterovirus
  IC50: 0.082 µg/mL (≈ 0.232 µM)
HRV21 (47); Enterovirus
  IC50: 0.024 µg/mL (≈ 0.0679 µM)
HRV3(FEB); Enterovirus
  IC50: > 5 µg/mL
HRV31 (41F); Enterovirus
  IC50: 0.046 µg/mL (≈ 0.13 µM)
HRV 2 (HGP); Enterovirus, Table VII, rhinovirus serotype HRV2, read-out: Anti-rhinovirus activity HRV2
  IC50: 0.051 µg/mL (≈ 0.144 µM)
HRV 2 (HGP); Human rhinovirus sp., HRV2, HeLa (Ohio strain) cells, MTT method, 33° C., read-out: IC50 HRV2
  IC50: 0.051 µg/mL (≈ 0.144 µM)
HRV 89 (41617-Gallo); Enterovirus, Table VII, rhinovirus serotype HRV89, read-out: Anti-rhinovirus activity HRV89
  IC50: 0.051 µg/mL (≈ 0.144 µM)
HRV 89 (41617-Gallo); Human rhinovirus sp., HRV89, HeLa (Ohio strain) cells, MTT method, 33° C., read-out: IC50 HRV89
  IC50: 0.051 µg/mL (≈ 0.144 µM)
other
  melting point: 225 °C

## Cc1c(-c2ccccc2)n(-c2ccc(F)cc2)c2ccc(C(C)C)cc2c1=O [Compound A323]
[1]; [12]
  IC50 HRV1B: 0.27 µg/mL (≈ 0.727 µM)
[1]; Table VII, rhinovirus serotype HRV1B
  Anti-Rhinovirus activity, HRV1B: 0.27
HRV5
  Anti-Rhinovirus activity, HRV5: >2.0
[2]
  IC50 CB4: >2 µg/mL
HRV10 (204-CV14)
  Anti-Rhinovirus activity, HRV10: 0.032
[3]
  IC50 Echo 11: >2 µg/mL
HRV8(MRH)
  Anti-Rhinovirus activity, HRV8: >2.0
[4]
  IC50 CA7: >2 µg/mL
HRV14 (1059)
  Anti-Rhinovirus activity, HRV14: >2.0
[5]
  Anti-rhinovirus activity Clinically isolated strain: 0.030
HRV1A (E28); Table VII, rhinovirus serotype HRV1A, same method as above
  Anti-Rhinovirus activity, HRV1A: >2.0
HRV29 (5582)
  Anti-Rhinovirus activity, HRV29: 0.11
[10]
  Anti-rotavirus activity IC50 HRoV(Odelia): 1.30 µg/mL
HRV61 (6669-CV39)
  Anti-Rhinovirus activity, HRV61: 0.30
HRV41 (56110)
  Anti-Rhinovirus activity, HRV41: 0.058
HeLa (Ohio strain)cells
  Cytotoxicity CC50 HeLa(Ohio): >2 µg/mL
[7]
  IC50 Polio 1: >2 µg/mL
HRV39 (209)
  Anti-Rhinovirus activity, HRV39: 0.018
HeLa cells
  Cytotoxicity CC50 HeLa: >2 µg/mL
HRV50(A2#58); Table VII, rhinovirus serotype HRV50
  Anti-Rhinovirus activity, HRV50: 0.038
HeLa-S3 cells
  Cytotoxicity CC50 HeLa-S3: >2 µg/mL
HRV33 (1200)
  Anti-Rhinovirus activity, HRV33: 0.30
[11]
  Anti-rotavirus activity IC50 SRoV(SA11): 0.90 µg/mL
HRV32 (363)
  Anti-Rhinovirus activity, HRV32: 0.077
HRV13 (353)
  Anti-Rhinovirus activity, HRV13: 0.12
HRV16 (11757)
  Anti-Rhinovirus activity, HRV16: 0.033
HRV36 (342H)
  Anti-Rhinovirus activity, HRV36: 0.13
HRV21 (47)
  Anti-Rhinovirus activity, HRV21: 0.067
HRV3(FEB)
  Anti-Rhinovirus activity, HRV3: >2.0
HRV31 (41F)
  Anti-Rhinovirus activity, HRV31: 0.088
HRV 2 (HGP); [12]
  IC50 HRV2: 0.038 µg/mL (≈ 0.102 µM)
HRV 2 (HGP); Table VII, rhinovirus serotype HRV2
  Anti-Rhinovirus activity, HRV2: 0.038
HRV 89 (41617-Gallo); [12]
  IC50 HRV89: 0.011 µg/mL (≈ 0.0296 µM)
HRV 89 (41617-Gallo); Table VII, rhinovirus serotype HRV89
  Anti-Rhinovirus activity, HRV89: 0.011
